How the values were obtained:
A2Kb Tg ApoE-/- mice = assay: Functional expression of A2Kb transgene (A2V7 immunization); format: in vivo, mouse; conditions: male mice, 20 μg/100 μl s.c. in IFA; compared to IFA-injected mice, P<0.05
Experimental: Male A2Kb Tg ApoE^−/− mice were immunized with the HLA-A*02:01-restricted peptide A2V7 from human hepatitis C virus (HCV NS5a 1987-1995, VLSDFKTWL (SEQ ID NO:34); ProImmune) emulsified in incomplete Freund's adjuvant (IFA; MP Biomedicals) at 9 and 10 weeks of age by subcutaneous injection at a dose of 20 μg/100 μl. Mice immunized with 100 μl IFA alone served as control. Mice were euthanized at 11 weeks of age. HLA-A*02:01 restricted antigen specific immune response was evaluated by flow cytometric analysis of splenocytes stained with CD19 (6D5), CD8a (KT15), and PE-conjugated HLA-A*02:01/A2V7-pentamer (ProImmune).

human PBMCs [1] = assay: Peptide stimulation of human PBMC (T effector / effector memory, Response Index); format: cell-based; conditions: 20 μg/ml P210, 72 h; ACS PBMCs compared to controls
Experimental: Cryo-preserved PBMCs were thawed, rinsed and cultured as in AIM assay but without resting. Cells were stimulated with 20 μg/ml P210 peptide or 0.5× T cell stimulation cocktail containing phorbol 12-myristate 13-acetate (PMA) and ionomycin (Thermo Fisher) with non-treated cells serving as negative control. Culture medium was added at ⅓ of the starting volume 48 hours later to replenish the nutrients in the medium. Cells were harvested 72 hours after seeding, stained for viability (LIVE/DEAD Fixable Aqua Dead Stain Kit, ThermoFisher), and subjected to cell surface staining for flow cytometry using the following antibodies: CD3, CD4, CD8, CD45RA, CD45RO, CD62L, and CD197 (CCR7). Isotypes were used as staining control. CD4^+ or CD8^+ T Effector cells were gated on CD45RO^+CD62L^−CD197^−. T Effector Memory cells were CD45RO^+CD45RA^−CD62L^−CD197^−.
Results were Tabulated as Response Index Using the Following Calculation:
(% peptide stimulation−% no stimulation)/(% cocktail stimulation)×100.
The results are expressed as Response Index to account for inherent variations introduced by culturing cells in vitro over time, controlled for by assessing response relative to baseline cell phenotype (% no stimulation) and maximal stimulation (% cocktail stimulation) for each subject PBMC. Each data point represents one subject.

human PBMCs [2] = assay: Activation Induced Marker (AIM) assay in human PBMC; format: cell-based
Experimental: Cryo-preserved PBMCs were thawed, rinsed in anti-aggregation solution (Immunospot), and seeded in culture plates at a density of 3×10^6 cells per ml of RPMI 1640 medium supplemented with 10% heat-inactivated pooled human serum and 1× antibiotic/antimycotic. After resting for 4 hours, cells were preincubated with 0.5 mg/ml anti-CD40 antibody for 15 minutes then stimulated with 20 μg/ml P210 peptide, 0.5× T cell stimulation cocktail containing PMA and ionomycin (Thermo Fisher), or CMV (pp65) Peptide Pool (StemCell Tech) as a non-relevant antigen control, whereas cells without treatment served as non-stimulated control. Cells were harvested 16 hours after seeding, stained for viability (LIVE/DEAD Fixable Aqua Dead Stain Kit, Thermo Fisher), and subjected to cell surface staining for flow cytometry using the following antibodies: CD4, CD8, CD25, CD69, OX40 (CD134), CD137 (4-1 BB) and CD154 (CD40L). Isotypes were used as staining control and eFluor506 labelled CD14, CD16 and CD19 antibodies were used as dump staining to exclude B cells, dendritic cells, macrophages, granulocytes, eosinophil cells and neutrophil cells. The results are expressed as fold change (ratio between the signal in the antigen stimulated condition and the signal in the unstimulated condition) for each subject, consistent with the reported AIM assay.

[3] = system: PBMCs from HLA-A*02:01(+) volunteers; assay: ApoB KTTKQSFDL pentamer(+) CD8+ T cells in human PBMCs cultured with P210; format: cell-based; conditions: PBMCs cultured with 20 μg/ml P210 for 5 days
Experimental: (§1) Proimmune was contracted to screen for potential binding epitopes in P210 to HLA-A*02:01. […] For pentamer staining, commercially available HLA-A*02:01 typed cryo-preserved PBMCs (Immunospot) were thawed, rinsed in anti-aggregation solution (Immunospot) and divided into 2×10^6 cell aliquots. ApOBKTTKQSFDL (SEQ ID NO:2) pentamer staining was performed according to manufacturer's instruction, with the HLA-A*02:01 Negative Pentamer (ProImmune) as negative control. Each sample stained for ApOBKTTKQSFDL (SEQ ID NO:2) pentamer had its corresponding negative control stain. Cells were washed and then stained for CD8 (LT8) andddCD19 (HIB19). Cells were again washed after staining and resuspended in 1% paraformaldehyde in 1% BSA/0.1% sodium azide and analyzed. ApOBKTTKQSFDL (SEQ ID NO:2) pentamer positive cells for each sample were determined based on the corresponding Negative Pentamer.

HLA-A*02:01 = molecular target: T1, HLA-A*02:01 (Homo sapiens, UniProt P04439, D140Y/D185E/D98H/E176V/E277Q/G131W/G231S/I119V/I121R/I166T/I218V/L300P/L318F/N151K/N90K/P208A/P217A/Q86G/Q94H/R138H/R169H/T345S); assay: REVEAL binding assay of 9-mer P210 peptides; conditions: for binding to HLA-A*02:01 (REVEAL binding score), in words: tested by ProImmune
T1 construct: purchased ProImmune (contracted REVEAL assay service)
Experimental: The human Class-I HLA that occurs with the highest frequency in North America is HLA-A*02:01; and P210 epitope binding to HLA-A*02:01 was tested by ProImmune using the REVEAL assay. The REVEAL assay used 9-mer sequential peptides of P210 to assess binding to HLA-A*02:01 (Table 2): a plurality of 9-amino acid fragments, each identical to residues 1-9, 2-10, 3-11, 4-12, 5-13, 6-14, 7-15, 8-16, 9-17, 10-18, 11-19, or 12-20 of P210. […] ApOBKTTKQSFDL (SEQ ID NO:2) pentamer was able to detect a small but significant population of P210-specific CD8+ T cells in PBMCs from healthy HLA-A*02:01(+) volunteers (FIG. 7B-7E).
as §1

[4] = 20 μg/ml P210, 16 h, ACS patients compared to control subjects

## VLSDFKTWL [Peptide A2V7, HLA-A*02:01-restricted peptide from human hepatitis C virus (HCV NS5a 1987-1995)]
A2Kb Tg ApoE-/- mice
  A2V7-pentamer+ CD8+ T cells in the spleen: significantly increased

## KTTKQSFDLSVKAQYKKNKH (listed as Homo sapiens) [Peptide P210, ApoB-100 derived peptide P210 (ApoB-100 3136-3155)]
Human PBMCs [1]
  CD4+ T effector cell response to P210: not significantly different
  CD8+ T effector memory response to P210: significant increase
  CD8+ T effector response to P210: significant increase
Human PBMCs [2]; [4]
  CD8+CD69+CD134+ T cells after P210 stimulation: no such increase was observed
  mean increase in CD4+CD69+CD134+ T cells after P210 stimulation: 1.5 fold
Human PBMCs [2]; after P210 stimulation, ACS vs controls
  markers for other AIM(+) cells (CD25+CD134+, CD69+CD154+, CD134+CD137+): not different compared to Controls
[3]
  tested samples with an increase of pentamer specific CD8+ T cells: 5 out of 8

## KTTKQSFDL (listed as Homo sapiens) [Peptide 1]
HLA-A*02:01; sequential 9-mer P210 peptides
  binding to HLA-A*02:01 (REVEAL binding score): KTTKQSFDL*
HLA-A*02:01; listed as First 9-mer sequence in P210
  binding to HLA-A*02:01 (REVEAL binding score), in words: high binding score
HLA-A*02:01; listed as first 9-mer
  binding to HLA-A*02:01 (REVEAL binding score), in words: scored well, comparable to the positive control
